The source of these data is PubChem BioAssay AID1259408 (Genetic Toxicology Data Bank (GENE-TOX), 2018).

Each structure is given as a SMILES string. Active and inactive are the calls of the source. How the calls were made is not given here.

This data set deals with GENE-TOX genotoxicity assays, various organisms and cells. The data set is described as follows: GENE-TOX mutagenicity studies. The conditions noted are these: for call: Assay Type: In vivo carcinogenicity studies. The source says:
GENE-TOX provides genetic toxicology (mutagenicity) test data from expert peer review of open scientific literature for more than 3,000 chemicals from the United States Environmental Protection Agency (EPA). GENE-TOX was established to select assay systems for evaluation, review data in the scientific literature, and recommend proper testing protocols and evaluation procedures for these systems.
GENE-TOX covers the years 1991 - 1998. It is no longer updated.
This is an archive assay for GENE-TOX mutagenicity studies.

Where [1] appears, read: Species/Cell Type: Salmonella typhimurium (one or more of the five standard strains: TA98, TA100, TA1535, TA1537, and TA1538), Assay Type: Histidine reverse gene mutation, Ames assay, Assay Code: SAL+, Evaluation Type: Evaluation A (Pre-1980).
Where [2] appears, read: Species/Cell Type: Drosophila melanogaster, Assay Type: Sex-linked recessive lethal gene mutation, Assay Code: SRL+, Evaluation Type: Evaluation A (Pre-1980).
[3] abbreviates: Species/Cell Type: Allium cepa, Assay Type: Chromosome aberrations, Assay Code: ALC+, Evaluation Type: Evaluation A (Pre-1980).
The mark [4] stands for this setting: Species/Cell Type: Drosophila melanogaster, Assay Type: Sex-linked recessive lethal gene mutation, Assay Code: SRLT, Evaluation Type: Evaluation A (Pre-1980).
[5] abbreviates: Species/Cell Type: Human lymphocytes, Assay Type: Sister-chromatid exchange (SCE) in vitro, Assay Code: SCL+D, Dose Response: With dose response, Evaluation Type: Evaluation B (Post-1980).
Setting [6] is: Species/Cell Type: Human, Assay Type: Sister-chromatid exchange (SCE) in vitro, Assay Code: SC1+D, Dose Response: With dose response, Evaluation Type: Evaluation B (Post-1980).
Setting [7] is: Species/Cell Type: Saccharomyces cerevisiae, Assay Type: Mitotic recombination or gene conversion, Assay Code: YEH-, Evaluation Type: Evaluation A (Pre-1980).
Where [8] appears, read: Species/Cell Type: Salmonella typhimurium (one or more of the five standard strains: TA98, TA100, TA1535, TA1537, and TA1538), Assay Type: Histidine reverse gene mutation, Ames assay, Assay Code: SAL-, Evaluation Type: Evaluation A (Pre-1980).
The mark [9] stands for this setting: Species/Cell Type: Escherichia coli polA (W3119 vs P3478), Assay Type: Rec-assay, DNA effects (bacterial DNA repair), Assay Code: RE1+, Evaluation Type: Evaluation A (Pre-1980).
Setting [10] is: Species/Cell Type: Nonhuman, Assay Code: CCG+L, Evaluation Type: Evaluation A (Pre-1980).
Where [11] appears, read: Species/Cell Type: Nonhuman, Assay Type: Sister-chromatid exchange (SCE) in vitro, Assay Code: SC2+D, Dose Response: With dose response, Evaluation Type: Evaluation B (Post-1980).
Where [12] appears, read: Species/Cell Type: Bacillus subtilis (H17 vs M45), Assay Type: Rec-assay, spot test, DNA effects (bacterial DNA repair), Assay Code: REW+, Evaluation Type: Evaluation A (Pre-1980).
[13] abbreviates: Species/Cell Type: Salmonella typhimurium (one or more of the five standard strains: TA98, TA100, TA1535, TA1537, and TA1538), Assay Type: Histidine reverse gene mutation, Ames assay, Assay Code: SALT, Evaluation Type: Evaluation A (Pre-1980).
Where [14] appears, read: Species/Cell Type: Nonhuman, Assay Code: CCG+, Evaluation Type: Evaluation A (Pre-1980).
Setting [15] is: Species/Cell Type: Salmonella typhimurium (one or more of the five standard strains: TA98, TA100, TA1535, TA1537, and TA1538), Assay Type: Histidine reverse gene mutation, Ames assay, Assay Code: SAL+*, Activation: With metabolic activation, Evaluation Type: Evaluation A (Pre-1980).

For `Cn1c([N+](=O)[O-])cnc1COC(N)=O`, the mutagenic call was “no conclusion” (Species/Cell Type: Mammalian polychromatic erythrocytes, Assay Type: Micronucleus test, chromosome aberrations, Assay Code: MNTT, Evaluation Type: Evaluation A (Pre-1980)); “inactive; negative” (Species/Cell Type: Rodents, Sex: Male, Assay Type: Dominant lethal test, Assay Code: DLT-, Evaluation Type: Evaluation A (Pre-1980)); “active; positive” under setting [1].

As to `CNP(=O)(N1CC1)N1CC1`, under setting [2], the mutagenic call is “active; positive”.

`O[C@@H]1[C@@H](O)c2c(cc3ccc4cccc5ccc2c3c45)C2O[C@@H]21` (some centres not stated): under setting [1], the mutagenic call is “active; positive”.

For `C[C@@H]1C[C@@]2(O[C@H]2C)C(=O)O[C@@H]2CCN3CC=C(COC(=O)[C@]1(C)O)[C@H]23`, the mutagenic call under setting [3] is “active; positive” and the mutagenic call under setting [4] was “no conclusion”.

As to `COC(=O)[C@H](N)Cc1cnc[nH]1`, the mutagenic call (Species/Cell Type: Drosophila melanogaster, Assay Type: Sex-linked recessive lethal gene mutation, Assay Code: SRL-, Evaluation Type: Evaluation A (Pre-1980)) was “inactive; negative”.

As to `COC(=O)Nc1nc2ccccc2[nH]1`, the mutagenic call is, setting by setting: under setting [3], “active; positive”; (Species/Cell Type: Aspergillus nidulans, Assay Type: Aneuploidy, chromosome aberrations, Assay Code: ASN+, Evaluation Type: Evaluation A (Pre-1980)) “active; positive”; (Species/Cell Type: Aspergillus nidulans, Assay Type: Mitotic recombination, Assay Code: ASGT, Evaluation Type: Evaluation A (Pre-1980)) “no conclusion”; under setting [5], “active; positive”; under setting [6], “active; positive”; (Species/Cell Type: Mouse, Sex: Female, Assay Type: Spot test, gene mutation, Assay Code: MST+, Evaluation Type: Evaluation A (Pre-1980)) “active; positive”. The mutagenic call reads like this: (Species/Cell Type: Saccharomyces cerevisiae, Assay Type: Mitotic recombination or gene conversion, Assay Code: YEC+, Evaluation Type: Evaluation A (Pre-1980)) “active; positive”; (Species/Cell Type: Saccharomyces cerevisiae, Assay Type: Mitotic recombination or gene conversion, Assay Code: YEH+, Evaluation Type: Evaluation A (Pre-1980)) “active; positive”.

Take `CC1(C)[C@H]2CC[C@]1(C)[C@H](O)C2`: the mutagenic call is “inactive; negative” under setting [7] and “inactive; negative” under setting [8].

Regarding `CCOC(=O)NO`, the mutagenic call is, setting by setting: under setting [4], “no conclusion”; under setting [9], “active; positive”; (Species/Cell Type: Human lymphocytes or leukocytes, Assay Type: Chromosome aberrations in vitro, Assay Code: CY7+, Evaluation Type: Evaluation A (Pre-1980)) “active; positive”; under setting [5], “active; positive”; under setting [6], “active; positive”; (Species/Cell Type: Mammalian polychromatic erythrocytes, Assay Type: Micronucleus test, chromosome aberrations, Assay Code: MNT+, Evaluation Type: Evaluation A (Pre-1980)) “active; positive”. In addition, the mutagenic call runs as follows: (Species/Cell Type: Mouse embryo (AKR/ME) cells, Assay Type: Cell transformation, Assay Code: CTK+, Evaluation Type: Evaluation A (Pre-1980)) “active; positive”; under setting [11], “active; positive”; (Species/Cell Type: Nonhuman, Assay Type: Sister-chromatid exchange (SCE) in vivo, Assay Code: SC3+D, Dose Response: With dose response, Evaluation Type: Evaluation B (Post-1980)) “active; positive”. Besides, under setting [10], the call is “active; positive”.

Turning to `O=C(OOC(=O)c1ccccc1)c1ccccc1`, the mutagenic call (Species/Cell Type: Escherichia coli polA (W3119 vs P3478), Assay Type: Rec-assay, DNA effects (bacterial DNA repair), Assay Code: RE1T, Evaluation Type: Evaluation A (Pre-1980)) was “no conclusion”.

With `O=NN1CCCC1=O`, the mutagenic call under setting [12] is “active; positive”.

Regarding `CC(C)(C)N(CCCC(=O)O)N=O`, under setting [13], the mutagenic call is listed as “no conclusion”.

For `CC(C)C[C@H](NC(=O)[C@@H](O)[C@H](N)Cc1ccccc1)C(=O)O`, the mutagenic call (Species/Cell Type: Human, Assay Type: Sister-chromatid exchange (SCE) in vitro, Assay Code: SC1T, Evaluation Type: Evaluation B (Post-1980)) is “no conclusion”.

Take `c1ccc2c(c1)-c1cccc3c1c-2cc1ccccc13`: under setting [14], the call was “active; positive”. The mutagenic call was “active; positive” (Species/Cell Type: Nonhuman, Assay Type: Sister-chromatid exchange (SCE) in vivo, Assay Code: SC3+, Evaluation Type: Evaluation B (Post-1980)) and “no conclusion” (Species/Cell Type: Nonhuman, Assay Type: Sister-chromatid exchange (SCE) in vivo, Assay Code: SC3T, Evaluation Type: Evaluation A (Pre-1980)).

As to `O=NN(CCO)CCCCO`, the mutagenic call under setting [15] was “active; positive”.

On to `CCCOc1ccc(CC(=O)NN)cc1CN(CC)CC`, for which the mutagenic call (Species/Cell Type: Saccharomyces cerevisiae, Assay Type: Reverse gene mutation, Assay Code: YERT, Evaluation Type: Evaluation A (Pre-1980)) is recorded as “no conclusion”.

Take `Cc1cc2ccccc2c2ccc3ccccc3c12`: the call under setting [14] is “active; positive”. Moreover, the mutagenic call under setting [15] was “active; positive”.

`CCCCN(CCC(=O)O)N=O`: under setting [1], the mutagenic call was “active; positive”.

`CC1=NN(c2ccc([N+](=O)[O-])cc2)C(=O)C1[N+](=O)[O-]` (configuration not stated): the mutagenic call by setting is: under setting [9], “active; positive”; under setting [1], “active; positive”.

Consider `N=C1C=CC(=C(c2ccc(N)cc2)c2ccc(N)cc2)C=C1`, for which the mutagenic call runs as follows: under setting [9], “active; positive”; (Species/Cell Type: Fischer rat embryo (RLV/1706) cells, Assay Type: Cell transformation, viral enhanced, Assay Code: CTR+, Evaluation Type: Evaluation A (Pre-1980)) “active; positive”; (Species/Cell Type: Mouse (BALB/c-3T3) cells, Assay Type: Cell transformation, Assay Code: CTB+D, Dose Response: With dose response, Evaluation Type: Evaluation A (Pre-1980)) “active; positive”; under setting [7], “inactive; negative”; under setting [8], “inactive; negative”; (Species/Cell Type: Salmonella typhimurium, Assay Type: Forward and reverse gene mutation, host-mediated assay, Assay Code: HMA-, Evaluation Type: Evaluation A (Pre-1980)) “inactive; negative”. For the same compound, the mutagenic call (Species/Cell Type: Syrian hamster embryo (SHE) cells, Assay Type: Cell transformation, clonal assay, Assay Code: CTCT, Evaluation Type: Evaluation A (Pre-1980)) is “no conclusion”. Under setting [10], the call is “active; positive”.

With `O=S1(=O)OC(c2cc(Br)c(O)c(Br)c2)(c2cc(Br)c(O)c(Br)c2)c2ccccc21`, under setting [13], the mutagenic call was “no conclusion”.

In the case of `Cc1c2ccccc2cc2c3c(ccc12)[C@@H](O)[C@H](O)C=C3`, the mutagenic call (Species/Cell Type: Chinese hamster lung (V79) cells, Assay Type: Forward gene mutation at the HPRT or ouabain locus, Assay Code: V79+, Evaluation Type: Evaluation A (Pre-1980)) is “active; positive”. Further, the call under setting [10] was “active; positive”.

For `O=P1(N2CC2)NC2CCCC3CCCC(N1)C32` (configuration not stated), the mutagenic call under setting [2] was “active; positive”.

Consider `O[C@H]1C=Cc2cc3c4ccccc4c4ccccc4c3cc2[C@@H]1O`, for which the mutagenic call under setting [11] was “active; positive”.

`CCOc1ccccc1C(N)=O`: under “Species/Cell Type: Human, Assay Type: Sister-chromatid exchange (SCE) in vitro, Assay Code: SC1+, Evaluation Type: Evaluation B (Post-1980)”, the mutagenic call was “active; positive”.

Regarding `[Hg][c]1ccccc1`, the mutagenic call (Species/Cell Type: Allium cepa, Assay Type: Chromosome aberrations, Assay Code: ALC+D, Dose Response: With dose response, Evaluation Type: Evaluation A (Pre-1980)) is “active; positive”.

For the compound `C[S-].C[S-].N#[O+].N#[O+].N#[O+].N#[O+].[Fe].[Fe]`, the mutagenic call (Species/Cell Type: Nonhuman, Assay Type: Sister-chromatid exchange (SCE) in vitro, Assay Code: SC2T, Evaluation Type: Evaluation B (Post-1980)) is “no conclusion”.

In the case of `C[n+]1c2ccccc2cc2cccc(N)c21`, the mutagenic call (Species/Cell Type: Saccharomyces cerevisiae, Assay Type: Forward gene mutation, Assay Code: YEF+, Evaluation Type: Evaluation A (Pre-1980)) is “active; positive”.

Take `CC(=O)Nc1ccc(N=Nc2cc(C)ccc2O)cc1`: the call under setting [14] was “active; positive”.

Regarding `CN=C1C=CC(=C(c2ccc(N(C)C)cc2)c2ccc(N(C)C)cc2)C=C1`, the mutagenic call is “active; positive” under setting [12] and “no conclusion” (Species/Cell Type: Bacillus subtilis (H17 vs M45T), Assay Type: Rec-assay, spot test, DNA effects (bacterial DNA repair), Assay Code: REXT, Evaluation Type: Evaluation A (Pre-1980)).
